Test results as given in US20050209220A1, “Treatment of peripheral neuropathy” (priority 2004, published 2005).
Counter-ions that a name gives are not always drawn.

Tested on: diabetic patient with neuropathy of the lower extremities
Assay: Case reports: diabetic patients with neuropathy / pain of the lower extremities
Assay type: in vivo, human
Protocol: 2. A diabetic patient with severe pains in their legs reported that it was very difficult for them to sleep with the pain. At first, they were instructed to take the one-half the regimen described in Example 1, that is 10 mgs of desipramine and 1 mg of fluphenazine at bedtime. […] 3. A diabetic patient with neuropathy of the lower extremities was prescribed 10 mgs of desipramine alone orally every twelve hours. […] 4. A diabetic patient with severe pain in the lower legs and feet was instructed to take 1 mg of fluphenazine hydrochloride orally every twelve hours beginning at bedtime. […] 5. A diabetic patient with severe lower extremity neuropathy manifested as pain in the lower legs and feet was instructed to take 2 mgs of fluphenazine hydrochloride orally every twelve hours beginning at bedtime.

OCCN1CCN(CCCN2c3ccccc3Sc3ccc(C(F)(F)F)cc32)CC1 [fluphenazine hydrochloride]
patient-reported pain reduction (diabetic patient (Example 4), fluphenazine hydrochloride alone, 1 mg orally every twelve hours, after two weeks): somewhat of an improvement in pain reduction, but not complete elimination | patient-reported pain reduction (diabetic patient (Example 5), fluphenazine hydrochloride alone, 2 mgs orally every twelve hours, after two weeks): somewhat of an improvement in pain reduction, but not complete elimination | patient-reported pain reduction (diabetic patient (Example 5), fluphenazine hydrochloride alone, 4 mgs every twelve hours): substantial improvement in reducing the severity of pain

CNCCCN1c2ccccc2CCc2ccccc21 [desipramine]
patient-reported pain reduction (diabetic patient (Example 3), desipramine alone, 10 mgs orally every twelve hours (20 mgs/day)): lack of effectiveness in reducing pain | patient-reported pain reduction (diabetic patient (Example 3), desipramine alone, higher dosage of 40 mgs per day): lack of effectiveness in reducing pain
